Key:
Format in all cases: cell-based, human
whole blood [1] = assay: Background IFN-γ responses to R848 alone in QFT-Nil tubes (whole blood, ELISA); details: for IFNγ concentration of the plasma, background response, Mean: QFT-Nil tube, 1 ml whole blood, 37° C., 16-24 hours
whole blood [2] = assay: IFN-γ responses of whole blood in QFT-Nil tubes with EBV EBNA1 pepMix plus R848; details: for IFNγ response to antigen+R848 minus background to R848 alone, Mean: 16-24 hours
whole blood [3] = assay: IFN-γ responses of whole blood in QFT-CMV tubes plus R848; details: for IFNγ response to antigen+R848 minus background to R848 alone, Mean: 16-24 hours
whole blood [4] = assay: Clinical study: QFT-TB response with added R848 in TB patients, TB suspects and household contacts; details: for effect on QFT-TB response: subjects positive to QFT-TB test alone

Compound: CCOCc1nc2c(N)nc3ccccc3c2n1CC(C)(C)O [R848]
- background responses to R848 alone (whole blood [1]; 0.1 μg/ml R848, QFT-Nil tubes): significant background responses seen in many donors
- IFNγ concentration of the plasma, background response, Mean (whole blood [1]; R848 0.01 μg/ml alone): −0.009677 1 U/ml
- IFNγ concentration of the plasma, background response, Mean (whole blood [1]; R848 0.02 μg/ml alone): 0.0100 1 U/ml
- IFNγ concentration of the plasma, background response, Mean (whole blood [1]; R848 0.025 μg/ml alone): 0.0330 1 U/ml
- IFNγ concentration of the plasma, background response, Mean (whole blood [1]; R848 0.03 μg/ml alone): 0.0925 1 U/ml
- IFNγ concentration of the plasma, background response, Mean (whole blood [1]; R848 0.04 μg/ml alone): 0.5144 1 U/ml
- IFNγ concentration of the plasma, background response, Mean (whole blood [1]; R848 0.05 μg/ml alone): 1.084 1 U/ml
- IFNγ concentration of the plasma, background response, Mean (whole blood [1]; R848 0.1 μg/ml alone): 21.58 1 U/ml
- background responses to R848 alone (whole blood [1]; below 0.05 μg/ml R848, QFT-Nil tubes): not significant
- boost in EBV responses (whole blood [2]; 0.05 μg/ml R848 added to EBV EBNA1 peptide pool): significant boost
- IFNγ response to antigen+R848 minus background to R848 alone, Mean (whole blood [2]; 0.5 μg/ml EBV EBNA 1 pepMix + 0.01 μg/ml R848, whole blood): 2.857 IU/ml
- IFNγ response to antigen+R848 minus background to R848 alone, Mean (whole blood [2]; 0.5 μg/ml EBV EBNA 1 pepMix + 0.05 μg/ml R848, whole blood): 18.32 IU/ml
- IFNγ response to antigen+R848 minus background to R848 alone, Mean (whole blood [2]; 0.5 μg/ml EBV EBNA 1 pepMix + 0.1 μg/ml R848, whole blood): 29.57 IU/ml
- responses to the antigen-R848 combined stimuli versus sum of separate responses (whole blood [2]; EBV and CMV antigens, whole blood): greater than that seen by adding together the responses to the antigen and R848 alone individually
- boost in responses in QFT-CMV tubes (whole blood [3]; 0.05 μg/ml R848 added): not as large as that seen for EBV
- boost in responses in QFT-CMV tubes (whole blood [3]; 0.1 μg/ml R848 added): much greater
- IFNγ response to antigen+R848 minus background to R848 alone, Mean (whole blood [3]; QFT-CMV tube + 0.05 μg/ml R848, whole blood): 15.96 IU/ml
- IFNγ response to antigen+R848 minus background to R848 alone, Mean (whole blood [3]; QFT-CMV tube + 0.1 μg/ml R848, whole blood): 79.53 IU/ml
- effect on QFT-TB response (whole blood [4]; R848 0.05 μg/ml, P<0.001): significantly enhanced
- effect on QFT-TB response (whole blood [4]; R848 0.1 μg/ml, P<0.0001): significantly enhanced
- patients negative with the current QFT-TB tube who became positive when R848 was added (whole blood [4]; both R848 concentrations tested, both patients TB suspects): Two
